Article PMC11858516, “Promiscuity in Polyphenol–Protein Interactions—Monitoring Protein Conformational Change upon Polyphenol–Protein Binding by Nano-Differential Fluorimetry (Nano-DSF)” (Molecules, 2025)

Assays:
Type in all cases: binding
[1] = target: T1, bovine serum albumin (BSA) (Bos taurus, UniProt P02769); assay: nano-DSF F350/F330 titration, […] fit; conditions: read-out: Ka [M^-1] (converted)
T1 construct: gene ALB

Casein = target: T2, Casein; assay: nano-DSF F350/F330 titration, […] fit; conditions: 37 °C, phosphate buffer pH 6.8, 1:1 stoichiometry assumed
T2 construct: gene CSN1S1

Ovalbumin (OVA) = target: T3, Ovalbumin (OVA) (Gallus gallus, UniProt P01012); assay: nano-DSF F350/F330 ratio; conditions: 1000 µM; phosphate buffer pH 6.8; 5 µM protein
T3 construct: gene SERPINB14
T3 sequence (P01012 2-386): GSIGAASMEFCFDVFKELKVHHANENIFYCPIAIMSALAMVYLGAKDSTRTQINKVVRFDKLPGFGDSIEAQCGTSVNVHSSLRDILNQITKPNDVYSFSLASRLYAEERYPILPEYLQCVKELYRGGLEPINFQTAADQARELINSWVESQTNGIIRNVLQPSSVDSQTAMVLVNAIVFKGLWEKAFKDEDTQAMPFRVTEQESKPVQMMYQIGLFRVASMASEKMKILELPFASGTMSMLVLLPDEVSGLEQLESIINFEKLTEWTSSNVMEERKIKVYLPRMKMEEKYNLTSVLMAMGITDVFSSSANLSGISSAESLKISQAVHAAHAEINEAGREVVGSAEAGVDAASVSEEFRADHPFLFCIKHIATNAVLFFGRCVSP
From the text: nano-DSF F350/F330 ratio on Ovalbumin (OVA)

[2] = target: T1, bovine serum albumin (BSA); assay: nano-DSF F350/F330 ratio; conditions: 1000 µM; phosphate buffer pH 6.8; 5 µM protein
From the text: nano-DSF F350/F330 ratio on bovine serum albumin (BSA)

T1 sequence (P02769 25-607): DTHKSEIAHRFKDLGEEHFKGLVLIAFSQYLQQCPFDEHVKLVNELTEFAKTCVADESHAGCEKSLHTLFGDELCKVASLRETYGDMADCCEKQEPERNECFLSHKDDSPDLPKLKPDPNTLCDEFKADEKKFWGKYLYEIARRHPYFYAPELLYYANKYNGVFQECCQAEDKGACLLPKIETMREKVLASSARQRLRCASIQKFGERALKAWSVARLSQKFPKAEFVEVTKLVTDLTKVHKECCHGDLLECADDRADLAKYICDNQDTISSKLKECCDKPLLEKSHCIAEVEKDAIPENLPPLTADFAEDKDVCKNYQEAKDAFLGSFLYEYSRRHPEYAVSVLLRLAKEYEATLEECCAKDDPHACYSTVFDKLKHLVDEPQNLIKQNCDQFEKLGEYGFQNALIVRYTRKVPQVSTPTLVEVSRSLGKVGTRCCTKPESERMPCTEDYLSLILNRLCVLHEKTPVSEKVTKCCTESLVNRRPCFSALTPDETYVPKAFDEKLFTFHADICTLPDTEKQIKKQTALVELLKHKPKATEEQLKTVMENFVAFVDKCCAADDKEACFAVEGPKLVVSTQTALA

Row | SMILES | Kd [1] | Ka [M^-1] (Casein) | F350/F330 fluorescence ratio (Ovalbumin (OVA)) | further results
1 | O=C(OC[C@H]1O[C@@H](OC(=O)c2cc(O)c(O)c(O)c2)[C@H](OC(=O)c2cc(O)c(O)c(O)c2)[C@@H](OC(=O)c2cc(O)c(O)c(O)c2)[C@@H]1OC(=O)c1cc(O)c(O)c(O)c1)c1cc(O)c(O)c(O)c1 [β-PGG] | 118 µM |  |  | 
2 | Oc1cc(O)c2c(c1)O[C@H](c1ccc(O)c(O)c1)[C@H](O)C2 [Epicatechin] |  |  |  | Ka (Casein; µM column is the reciprocal of Ka, the M^-1 cell is misprinted (7 1616)): 139.6 µM
3 | O=C(/C=C/c1ccc(O)c(O)c1)O[C@H]1[C@H](O)C[C@](O)(C(=O)O)C[C@H]1OC(=O)/C=C/c1ccc(O)c(O)c1 [3,4-diCQA] | 18 µM | 41 271 |  | 

The next lines start with results.

Row | Kd [1] | Ka [M^-1] (Casein) | F350/F330 fluorescence ratio (Ovalbumin (OVA)) | SMILES | further results
4 |  | 21 450 | 1.02 | O=C(/C=C/c1ccc(O)c(O)c1)O[C@@H]1C[C@](O)(C(=O)O)C[C@@H](O)[C@H]1O [5-CQA] | 
5 | 89.3 µM |  |  | O=C(OC[C@H]1O[C@H](OC(=O)c2cc(O)c(O)c(O)c2)[C@H](OC(=O)c2cc(O)c(O)c(O)c2)[C@@H](OC(=O)c2cc(O)c(O)c(O)c2)[C@@H]1OC(=O)c1cc(O)c(O)c(O)c1)c1cc(O)c(O)c(O)c1 [α-PGG] | 
6 |  |  | 1.25 | O=C(O[C@@H]1Cc2c(O)cc(O)cc2O[C@@H]1c1cc(O)c(O)c(O)c1)c1cc(O)c(O)c(O)c1 [EGCG] | F350/F330 fluorescence ratio [2]: 1.57
